Experimental data: patent US11549123B2, “Plant EPSP synthases and methods of use” (PIONEER HI-BRED INTERNATIONAL, INC., priority 2015, dated 2023)
pKi: −log10 of the molar value.

Columns and labels:
Assay type in all cases: biochemical
[1] = target: Zea mays EPSPS variant WT-FS-E2 (102A 302S 391G 438R I208L) (Zea mays, UniProt O24566, E301S/E390G/G101A/I207L/V437R); assay: EPSPS substrate saturation kinetics, WT-FS-E2
Method: (§1) EPSPS activity was determined by quantifying the phosphate generated from the EPSPS reaction. Release of inorganic phosphate was coupled to reaction with 2-amino-6-mercapto-7-methylpurine ribonucleoside, catalyzed by purine-nucleoside phosphorylase (M R Webb, Proc. Natl. Acad. Sci. 89:4884-4887, 1992). The absorbance change that occurs was monitored at 360 nm, where the extinction is 11,200 M^−1 cm^−1, with a Spectramax plate reader (Molecular Devices). To determine kinetic parameters, the varied substrate was present at seven concentrations (the eighth being the blank, containing no substrate) ranging from 4 to 400 uM and the unvaried substrate present at saturation. […] Reactions were monitored with a Spectramax plate reader. […] KI was then calculated from the following form of the Michaelis-Menten equation for competitive inhibition: KI=KM[I]/(KM app−KM) KM approximates the dissociation constant of the enzyme-substrate complex while kcat is the rate of conversion of substrate to product when the substrate concentration is saturating. kcat/KM is a widely accepted parameter for catalytic efficiency when substrate concentration is low (˜KM). […] The parameter kcat/KM×KI is used to quantify both catalytic efficiency and insensitivity and thus the overall fitness of the enzyme. […]

[2] = target: Oryza sativa EPSPS with 868-H6 mutations, SEQ ID NO:11 (Oryza sativa, UniProt Q93VK6, A482G/A67R/A69W/D368S/D468G/E457G/G168A/I274L/K149R/L164C/T345A/T427S/T507Q/V137Q/V504R); assay: EPSPS substrate saturation kinetics, rice H6
Sequence of Oryza sativa EPSPS with 868-H6 mutations, SEQ ID NO:11 (Q93VK6 64-511 with the stated changes): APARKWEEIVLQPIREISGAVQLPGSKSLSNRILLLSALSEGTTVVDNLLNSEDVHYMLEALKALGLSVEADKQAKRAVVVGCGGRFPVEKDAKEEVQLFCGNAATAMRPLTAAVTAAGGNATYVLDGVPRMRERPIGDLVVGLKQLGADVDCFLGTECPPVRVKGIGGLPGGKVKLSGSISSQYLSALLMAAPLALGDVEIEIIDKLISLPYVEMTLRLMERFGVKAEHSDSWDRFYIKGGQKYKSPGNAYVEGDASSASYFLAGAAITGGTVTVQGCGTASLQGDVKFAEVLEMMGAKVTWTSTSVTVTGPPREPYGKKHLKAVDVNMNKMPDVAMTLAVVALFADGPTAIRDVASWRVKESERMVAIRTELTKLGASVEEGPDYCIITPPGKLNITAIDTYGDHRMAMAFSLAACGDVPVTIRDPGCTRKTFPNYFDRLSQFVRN
Method: as §1

[3] = target: T1, Zea mays EPSPS variant Zm-H6 (868-H6) with R61Y (H6-R61Y) (Zea mays, UniProt O24566, A1R/A3W/A415G/A71Q/D401G/E301S/E390G/G101A/I207L/K83R/L97C/R60Y/T278A/T360S/T440Q/V437R); assay: Rapid two-rate method for (kcat/KM)*KI, H6-R61Y; conditions: [E] 0.07 uM, [Gly] 1000 uM
T1 construct: 868-H6 plus R61Y; E. coli BL21(DE3), Ni-NTA purified
T1 sequence (O24566 with tags, fused parts or gaps A1R/A3W/R60Y/A71Q/K83R/L97C/G101A/I207L/T278A/E301S/T360S/E390G/D401G/A415G/V437R/T440Q): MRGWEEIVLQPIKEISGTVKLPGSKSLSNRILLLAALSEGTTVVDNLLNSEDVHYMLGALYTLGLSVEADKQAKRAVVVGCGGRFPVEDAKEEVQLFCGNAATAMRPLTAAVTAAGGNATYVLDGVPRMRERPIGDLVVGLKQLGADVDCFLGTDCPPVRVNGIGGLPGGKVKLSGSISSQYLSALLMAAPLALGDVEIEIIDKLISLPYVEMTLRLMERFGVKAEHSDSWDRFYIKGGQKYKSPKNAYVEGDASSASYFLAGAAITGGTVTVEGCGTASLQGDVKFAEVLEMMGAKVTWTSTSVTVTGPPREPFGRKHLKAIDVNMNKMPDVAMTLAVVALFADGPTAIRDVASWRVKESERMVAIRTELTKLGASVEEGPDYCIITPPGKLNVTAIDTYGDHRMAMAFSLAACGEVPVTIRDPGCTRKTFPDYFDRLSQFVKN
Description: There are several practical considerations for accurately estimating (kcat/KM)*KI with the rapid method. […] 2) The inhibitor concentration must be adjusted so as to obtain a degree of inhibition that minimally amplifies the error in the term v0-vi in Equation 3. If inhibition is too little, v0-vi will be small, and the error in the multiplier vi×v0/(v0-vi) will be large. […] 3) Substrate concentration should be set at the approximate KM of the parental variant(s), subject to the sensitivity of the assay. High substrate concentration obscures sensitivity to the inhibitor and reduces stringency for capturing improvements in KM. Depending on the necessity for speed, there exists opportunity for customizing enzyme and inhibitor concentrations. […] The rapid method was repeated for those and obtained data that correlated better with data obtained by substrate saturation analysis. For screening purposes however, that correlation step is not necessary. Conditions can be set so that variants with a pre-determined minimal fitness level are accurately quantified.
In Table 15, parameters above the heavy line for the rapid method were obtained under standard conditions. For variants shown below the heavy line, the rapid analysis was repeated with enzyme or glyphosate concentrations adjusted as needed to generate sufficient signal within the limits for linear initial rates.

[4] = PEP as substrate, glyphosate as inhibitor

Sequence of Zea mays EPSPS variant WT-FS-E2 (102A 302S 391G 438R I208L) (O24566 entry or part of it G101A/I207L/E301S/E390G/V437R): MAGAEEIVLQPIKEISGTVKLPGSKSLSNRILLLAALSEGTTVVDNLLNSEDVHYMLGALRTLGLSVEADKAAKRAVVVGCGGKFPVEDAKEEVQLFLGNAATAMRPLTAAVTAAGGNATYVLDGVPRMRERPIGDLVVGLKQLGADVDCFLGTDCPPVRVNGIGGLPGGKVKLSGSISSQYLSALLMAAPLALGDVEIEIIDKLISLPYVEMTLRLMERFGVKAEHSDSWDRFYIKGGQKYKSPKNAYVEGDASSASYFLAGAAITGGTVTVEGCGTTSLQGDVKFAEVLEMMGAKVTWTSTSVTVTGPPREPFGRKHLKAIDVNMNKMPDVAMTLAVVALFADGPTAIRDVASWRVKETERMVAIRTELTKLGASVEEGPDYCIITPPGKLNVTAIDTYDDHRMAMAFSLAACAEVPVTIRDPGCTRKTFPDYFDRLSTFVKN

With `O=C(O)CNCP(=O)(O)O` [glyphosate, N-phosphonomethylglycine] the pKi [1] was 3.18, the “(kcat/KM)*KI” value [1, 4] was 4512 and the pKi [2] was 3.04. The “(kcat/KM)*KI” value [2, 4] was 9200 and the “(kcat/KM)*KI” value [3] was 1889.
